Values of other authors in patent US20180271919A1, “PROBIOTIC COMPOSITION AT LEAST COMPRISING BIFIDOBACTERIUM BIFIDUM W23 AND CAPABLE OF CONTROLLING INTESTINAL BARRIER FUNCTION” (Winclove Holding B.V., priority 2015, published 2018).

Test system: patients with schizophrenia
Settings: patients with schizophrenia prescribed the drug

## CN1CCN(C2=Nc3cc(Cl)ccc3Nc3ccccc32)CC1 [clozapine]
  Rate of metabolic syndrome: 52%
